Test results as given in patent US5096911A, “Alteration of rate and character of hair growth” (priority 1990, dated 1992).

How the values were obtained:
[1] = system: Hamster flank organ hair; experiment: Inhibition of hair growth: hamster flank organ hair mass after topical application; assay type: in vivo, male intact Golden Syrian hamsters; conditions: three weeks; for Percent Inhibition (of hair mass vs vehicle-treated organ) / Hamster Flank Organ Hair Mass, Treated (mean): once a day, five days a week
Source text: Acivicin (Sigma Chemical Co., St. Louis) was mixed with separate portions of the foregoing vehicle to provide specimens containing 1,2, and 6% by weight respectively of the inhibitor and the pH was adjusted to pH 7.5 with sodium hydroxide.
Four groups (eight animals in each group) of male intact Golden Syrian hamsters were provided. These animals were considered acceptable models for human beard hair growth in that they display oval shaped flank organs, one on each side, each about 8 mm. in major diameter, which grow thick black and coarse hair similar to human beard hair. These organs produce hair in response to androgens in the hamster. The flank organs of each hamster were depilated by applying a thioglycolate- based chemical depilatory (Surgex), and to one organ of each animal was applied 10-25 mg. of vehicle alone once a day, while to the other organ of each animal was applied an equal amount of vehicle containing inhibitor. After three weeks of such applications (five days a week), the flank organs were shaved and the amount of recovered hair (hair mass) from each was weighed. The extent of reduction in hair growth by the inhibitor was expressed as the percent decrease in hair mass on the organ treated with inhibitor as compared to the organ treated with vehicle alone. As a control, one group of eight animals had both flank organs of each animal treated with vehicle alone.
A composition was prepared containing 5% by weight of bromsulphalein disodium in the vehicle described in Example I above, and applied to hamster flank organs under the same conditions as described in Example 1.
The anthglutin prepared as described above was dissolved in specimens of the vehicle described in Example 1 and applied to the flank organs of groups of hamsters in the same manner as described in Example 1, a group of eight animals being used for each different composition.

[2] = system: gamma-glutamyl transpeptidase; conditions: Japanese Patent No. 53-127,432; Minato, Archives Biochem. Biophy., Vol. 192, 235-240 (1979); cited from earlier work
[3] = system: hair follicle gamma-glutamyl transpeptidase; experiment: Inhibition of hair follicle gamma-glutamyl transpeptidase activity; assay type: biochemical
[4] = system: follicle enzyme; experiment: Inhibition of follicle enzyme activity after topical treatment over three weeks; assay type: in vivo, Golden Syrian hamsters; conditions: 6% solution, three week period

N[C@@H](CCC(=O)NNc1ccccc1C(=O)O)C(=O)O [Anthglutin, 1-gamma-L-glutamyl-2 (2-carboxyphenyl)-hydrazine]
Percent Inhibition (of hair mass vs vehicle-treated organ) ([1]; anthglutin 0.5%, topical): 10.7%
Hamster Flank Organ Hair Mass, Treated (mean) ([1]; anthglutin 0.5%, topical, contralateral vehicle organ 2.03 mg): 1.81 mg
Percent Inhibition (of hair mass vs vehicle-treated organ) ([1]; anthglutin 1.0%, topical): 16.7%
Hamster Flank Organ Hair Mass, Treated (mean) ([1]; anthglutin 1.0%, topical, contralateral vehicle organ 1.92 mg): 1.60 mg
Percent Inhibition (of hair mass vs vehicle-treated organ) ([1]; anthglutin 2.0%, topical): 38.6%
Hamster Flank Organ Hair Mass, Treated (mean) ([1]; anthglutin 2.0%, topical, contralateral vehicle organ 2.57 mg): 1.58 mg
Percent Inhibition (of hair mass vs vehicle-treated organ) ([1]; anthglutin 6.0%, topical): 67.2%
Hamster Flank Organ Hair Mass, Treated (mean) ([1]; anthglutin 6.0%, topical, contralateral vehicle organ 2.26 mg): 0.74 mg
inhibition of gamma-glutamyl transpeptidase [2]: specific inhibitor of gamma-glutamyl transpeptidase
inhibition of the activity / inhibitory affinity for hair follicle gamma-glutamyl transpeptidase [3]: strong inhibitory affinity

O=C1OC(c2ccc(O)c(S(=O)(=O)O)c2)(c2ccc(O)c(S(=O)(=O)O)c2)c2c(Br)c(Br)c(Br)c(Br)c21 [bromsulphalein disodium, 5,5'-(4,5,6,7-tetrabromo-3-oxo-1(3H)-isobenzofuranylidene) bis[2-hydroxybenzenesulfonic acid]]
inhibition of hair mass ([1]; 5% by weight bromsulphalein disodium, topical): 32%

N[C@H](C(=O)O)[C@@H]1CC(Cl)=NO1 [Acivicin, (alpha S,5S)-amino-3-chloro-4,5-dihydro-isoxazole acetic acid]
Percent Inhibition (of hair mass vs vehicle-treated organ) ([1]; acivicin 1.0%, topical): 18.2%
Hamster Flank Organ Hair Mass, Treated (mean) ([1]; acivicin 1.0%, topical, contralateral vehicle organ 1.04 mg): 0.85 mg
Percent Inhibition (of hair mass vs vehicle-treated organ) ([1]; acivicin 2.0%, topical): 57.9%
Hamster Flank Organ Hair Mass, Treated (mean) ([1]; acivicin 2.0%, topical, contralateral vehicle organ 1.33 mg): 0.56 mg
Percent Inhibition (of hair mass vs vehicle-treated organ) ([1]; acivicin 6.0%, topical): 81.0%
Hamster Flank Organ Hair Mass, Treated (mean) ([1]; acivicin 6.0%, topical, contralateral vehicle organ 0.79 mg): 0.15 mg
character of hair on the treated organ vs untreated organ ([1]; topical acivicin): more vellus in nature
inhibition of follicle enzyme activity [4]: about 87%
